The values below come from patent US9073880B2, “2-(2-phenylethenyl) 1,3-benzodiazepine derivatives useful for the treatment of cancer” (Yissum Research Development Company of the Hebrew …, priority 2010, dated 2015).

Common to all, as to assay type: cell-based
Experiment [1] deals with human colon carcinoma HCT116 cells. Briefly: Cell proliferation, HCT116 (Example 4). As to conditions: HCT-116, HCT116, colon cancer, compound in 2-hydroxypropyl-β-cyclodextrin. Here is the method: (§1) Human ovary cancer A2780 cells lines were seeded at a density of 5000 cells/well, human melanoma A375 cells were plated at a density of 2,500 cells/well, human colon carcinoma HCT15 cells were plated at a density of 3,000 cells/well, human prostate carcinoma PC3 cells were plated at a density of 1,500 cells/well, human breast carcinoma MCF7 cells were plated at a density of 5,000 cells/well, human breast carcinoma MDA MB 468 cells were plated at a density of 6,000 cells/well, human myeloma U266, RPMI8226 and CAG cells were plated at a density of 10,000 cells/well. All cells were plated in 96-well plates in 90 μl growth medium containing 10% FCS, 100 units/ml penicillin and 100 μg/ml streptomycin. Compound 3 was added a day later in […] of 1% DMSO in DDW to obtain final concentrations of 0, 0.1, 0.3, 1, 3, and 10 μM. The final concentration of DMSO (0.1% DMSO) was kept constant in all samples. Following exposure of the cells to compound 3 for 72 hours at 37° C., adhered cells were fixed in 0.5% gluteraldehyde in medium for 10 min, washed three times with DDW, once with 0.1M sodium borate buffer pH 8.5 and stained with 1% methylene blue dissolved in 0.1M borate buffer solution for 60 min. Excess dye was washed out and cell-bound dye was eluted with 200 μl/well of 0.1M HCl. The optical density values were read at 630 nm in ELISA plate reader. Non-adhered cells were exposed to WST-1 reagent for 5 hours following 72 hours treatment with the inhibitors, and optical density values were read at 630 nm in ELISA plate reader. The data was analyzed in Microsoft Excel, using the vehicle control as 100% proliferation. The assays were performed in triplicates. The values of IC50 were derived from the dose-dependent growth curves obtained.
(§2) Cell proliferation assay was performed as described in Example 2. The following cell line were plated in 96-well plates in 90 μl growth medium containing 10% FCS, 100 units/ml penicillin and 100 μg/ml streptomycin: human ovary cancer A2780 cells (4500 cells/well), human melanoma A375 (1500 cells/well) and YUMAC (2500 cells/well) cells, human colon carcinoma HCT15 (3000 cells/well) and HCT116 (2000 cells/well) cells, human prostate carcinoma PC3 (3000 cells/well), PC3MM2 (3500 cells/well) and DU145 (300 cells/well) cells, human hepatocarcinoma HepG2 (3000 cells/well), human Ewing sarcoma SK-ES-1 (4,500 cells/well), human glioblastoma U138MG (2,000 cells/well), human breast cancer T47D (4000 cells/well) and MDA-MB-468 (6000 cells/well) cells, human small cell lung carcinoma NCI-H1975 (5000 cells/well) cells, human osteosarcoma Saos-2 (5000 cells/well) cells, human pancreatic cancer ASPC (2500 cells/well) cells, human bladder carcinoma T24P (1000 cells/well) cells, human gastric cancer NCI-N87 (5000 cells/well) cells, human lymphoma KARPAS (5,000 cells/well) cells, human leukemia K562 (5,000 cells/well) cells and human multiple myeloma MM1S (10,000 cells/well), U266 (10,000 cells/well) and CAG (5,000 cells/well). Compounds 2-5 and 7-8 were added a day later in 10 μl of 0.7% 2-hydroxypropyl-β-cyclodextrin to obtain final concentrations of 0, 0.1, 0.3, 1, 3 and 10 μM.
(§3) Compounds 2-5 and 7-8 of the present invention were tested for their inhibitory potential in cell proliferation assay. […]

For experiment [2], the system named is human multiple myeloma MM1S cells. Put plainly: Cell proliferation, MM1S (Example 4). The settings on record: MM1.S, compound in 2-hydroxypropyl-β-cyclodextrin. Here is the method: as §1, §2
Compounds 2-5 and 7-8 of the present invention were tested for their inhibitory potential in cell proliferation assay. Human ovary cancer A2780 cells, human melanoma A375 and YUMAC cells, human colon carcinoma HCT15 and HCT116 cells, human prostate carcinoma PC3, PC3MM2 and DU145 cells, human hepatocarcinoma HepG2 cells, human Ewing sarcoma SK-ES-1 cells, human glioblastoma U138MG cells, human breast cancer T47D and MDA-MB-468 cells, human small cell lung carcinoma NCI-H1975 cells, human osteosarcoma Saos-2 cells, human pancreatic cancer ASPC cells, human bladder cancer T24P cells, human gastric cancer cells, human lymphoma KARPAS cells, human leukemia K562 cells, and human multiple myeloma MM1S, CAG and U266 cells, were exposed to increasing concentrations of compounds 2-5 and 7-8. […]

Experiment [3] deals with human bladder carcinoma T24P cells. Briefly: Cell proliferation, T24P (Example 4). The settings on record: compound in 2-hydroxypropyl-β-cyclodextrin. The method, then: as §1
(§4) Cell proliferation assay was performed as described in Example 2. […]

Experiment [4] has as its system human breast cancer T47D cells. Briefly: Cell proliferation, T47D (Example 4). As to conditions: compound in 2-hydroxypropyl-β-cyclodextrin. Here is the method:
as §1, §4

In experiment [5] the test system is human pancreatic cancer ASPC cells. Briefly: Cell proliferation, ASPC (Example 4). The settings on record: compound in 2-hydroxypropyl-β-cyclodextrin. Here is the method:
as §1, §2, §3

Experiment [6] relates to human gastric cancer NCI-N87 cells. Put plainly: Cell proliferation, NCI-N87 (Example 4). The settings on record: compound in 2-hydroxypropyl-β-cyclodextrin. Here is the method: as §1, §4
Experiment [7] deals with human multiple myeloma MM1S cells. Briefly: Cytotoxicity of combination with Velcade in MM1S cells (CellTiter Glo). As to conditions: for α/a+β/b (synergism if <1): combination with Velcade, three days; for combined effect with Velcade versus Bliss additive effect: compound 0.1 or 0.2 M (so in the source), 1 and 1.5 nM Velcade, FIGS. 8 and 9. Here is the method: Human multiple myeloma MM1S cells were plated at a density of 10,000 cells/well in 96-well plates in 90 μl growth medium containing 10% FCS, 100 units/ml penicillin and 100 μg/ml streptomycin. Velcade® (i.e. bortezomib or PS-341) was obtained from LC Laboratories. Compounds 3 and 5 were added a day later in 5 μl of 0.7% 2-hydroxypropyl-β-cyclodextrin in DDW to the multiple myeloma cell plates to obtain final concentrations of […]. Velcade® was added in 5 μl of 1% DMSO to obtain final concentrations of 0, 0.5, 1 and 1.5 nM. Three days later CellTiter Glo reagent (100 μl/well) was added to the medium (1:1), shaked, and following 10 min incubation transferred to 96-well white plates and read in a Luminometer. The data was analyzed in Microsoft Excel, using the vehicle control as 0% cytotoxicity. The assays were performed in triplicates. Cytotoxicity (%) was calculated as follows: [(absorbance of control cells—absorbance of drug-treated cells)/absorbance of control cells]×100. In FIGS. 8 and 9 the Bliss additivism model (Cardone et al. Science (1998), 282: 1318-1321) was used to calculate the combined effect using the following formula: Ebliss=EA+EB−EA×EB, where EA and EB are the fractional inhibitions obtained by drug A alone and drug B alone at specific concentrations. […] The synergic effect was calculated in an additional method in which the existence of α/a+β/b<1 was tested (a is the IC50 of drug A in the absence of drug B, α is the IC50 of drug A in the presence of drug B, b is the IC50 of drug B in the absence of drug A, β is the IC50 of drug B in the presence of drug A).

With `O=c1c(O)cc2cnc(/C=C/c3cc(O)c(O)c(Br)c3)sc-2c1O` [Compound 3], the 50% inhibitory concentration (IC50) in experiment [1] amounted to 500 nM; in experiment [2], 500 nM; in experiment [3] it was 6000 nM; in experiment [4], 1500 nM; in experiment [5], 13100 nM; in experiment [6] it was 4500 nM. Besides, the “α/a+β/b (synergism if <1)” value in experiment [7] is listed as 0.7. Moreover, the “combined effect with Velcade versus Bliss additive effect” value in experiment [7] is reported as “strong synergistic effect”.
As to `O=c1c(O)cc2cnc(/C=C/c3ccc(O)c(O)c3Br)sc-2c1O` [Compound 5], the IC50 worked out at 400 nM in experiment [1]; 600 nM in experiment [2]; 6500 nM in experiment [3]; 1800 nM in experiment [4]; 8200 nM in experiment [5]; 4000 nM in experiment [6]. The “α/a+β/b (synergism if <1)” value in experiment [7] is on record as 0.6. Besides, in experiment [7], the “combined effect with Velcade versus Bliss additive effect” value is “strong synergistic effect”.
